In ChEMBL document CHEMBL1145107, “Peptide science: exploring the use of chemical principles and interdisciplinary collaboration for understanding life processes” (J Med Chem, 2003):
Where a SMILES comes first, the peptide text is derived from it. [ ]: non-standard residue; d: D form. NMeNle = CCCC[C@H](NC)C(=O)O; dNle = CCCC[C@@H](N)C(=O)O

How the values were obtained:
[1] = target: T1, Mu-type opioid receptor (Homo sapiens, UniProt P35372); test: Binding affinity towards Opioid receptor mu 1 using [3H]- CTOP as radioligand
T1 sequence (P35372 whole entry): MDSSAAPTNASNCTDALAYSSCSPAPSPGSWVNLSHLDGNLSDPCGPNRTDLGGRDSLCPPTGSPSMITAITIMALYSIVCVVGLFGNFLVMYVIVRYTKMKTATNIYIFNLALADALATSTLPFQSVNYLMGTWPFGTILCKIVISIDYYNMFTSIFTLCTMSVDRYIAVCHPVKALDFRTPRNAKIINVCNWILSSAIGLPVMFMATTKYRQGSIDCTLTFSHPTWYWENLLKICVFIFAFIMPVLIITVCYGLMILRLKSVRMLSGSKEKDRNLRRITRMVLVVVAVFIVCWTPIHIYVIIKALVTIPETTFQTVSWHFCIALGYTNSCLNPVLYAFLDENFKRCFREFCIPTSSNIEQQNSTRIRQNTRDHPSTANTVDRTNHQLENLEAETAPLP

[2] = tested on: Anolis carolinensis; test: Biological activity using the lizard skin (Anolis carolinensis) assay. The value indicates prolonged biological activity; type: functional, organism-based
[3] = Biological activity using the frog skin (Rana pipiens) assay. The value indicates prolonged biological activity; type: functional
[4] = target: Delta-type opioid receptor (Homo sapiens, UniProt P41143); test: Binding affinity towards Opioid receptor delta 1 was determined
Sequence of Delta-type opioid receptor (Homo sapiens, UniProt P41143) (P41143 whole entry): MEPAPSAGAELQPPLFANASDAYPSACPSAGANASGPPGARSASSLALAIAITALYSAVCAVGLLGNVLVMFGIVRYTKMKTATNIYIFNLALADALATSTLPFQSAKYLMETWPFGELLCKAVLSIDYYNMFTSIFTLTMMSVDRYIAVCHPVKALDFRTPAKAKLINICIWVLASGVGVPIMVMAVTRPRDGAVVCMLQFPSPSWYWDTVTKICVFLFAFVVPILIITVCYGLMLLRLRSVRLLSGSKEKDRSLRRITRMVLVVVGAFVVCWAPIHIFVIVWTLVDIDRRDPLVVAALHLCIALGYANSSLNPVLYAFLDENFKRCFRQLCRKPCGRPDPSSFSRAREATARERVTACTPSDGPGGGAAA

[5] = target: T1, Mu-type opioid receptor; test: Binding affinity towards Opioid receptor mu 1 was determined
[6] = target: T2, Gastrin/cholecystokinin type B receptor (Homo sapiens, UniProt P32239); test: Binding affinity towards Cholecystokinin type B receptor (CCK-B) receptor was determined
T2 sequence (P32239 whole entry): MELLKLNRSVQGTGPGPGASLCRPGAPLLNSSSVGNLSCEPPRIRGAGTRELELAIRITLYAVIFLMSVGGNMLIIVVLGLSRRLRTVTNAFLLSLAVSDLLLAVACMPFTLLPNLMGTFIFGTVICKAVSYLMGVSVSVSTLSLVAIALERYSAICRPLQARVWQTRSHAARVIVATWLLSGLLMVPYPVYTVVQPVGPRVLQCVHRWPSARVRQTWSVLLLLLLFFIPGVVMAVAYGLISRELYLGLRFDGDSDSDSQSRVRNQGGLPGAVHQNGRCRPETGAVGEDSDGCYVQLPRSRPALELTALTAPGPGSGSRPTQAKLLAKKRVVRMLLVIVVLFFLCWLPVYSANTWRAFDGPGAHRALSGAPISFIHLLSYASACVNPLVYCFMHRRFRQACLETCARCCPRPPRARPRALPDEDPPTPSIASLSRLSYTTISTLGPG

[7] = target: T3, Cholecystokinin receptor type A (Homo sapiens, UniProt P32238); test: Binding affinity towards Cholecystokinin type A receptor (CCK-A) receptor was determined
T3 sequence (P32238 whole entry): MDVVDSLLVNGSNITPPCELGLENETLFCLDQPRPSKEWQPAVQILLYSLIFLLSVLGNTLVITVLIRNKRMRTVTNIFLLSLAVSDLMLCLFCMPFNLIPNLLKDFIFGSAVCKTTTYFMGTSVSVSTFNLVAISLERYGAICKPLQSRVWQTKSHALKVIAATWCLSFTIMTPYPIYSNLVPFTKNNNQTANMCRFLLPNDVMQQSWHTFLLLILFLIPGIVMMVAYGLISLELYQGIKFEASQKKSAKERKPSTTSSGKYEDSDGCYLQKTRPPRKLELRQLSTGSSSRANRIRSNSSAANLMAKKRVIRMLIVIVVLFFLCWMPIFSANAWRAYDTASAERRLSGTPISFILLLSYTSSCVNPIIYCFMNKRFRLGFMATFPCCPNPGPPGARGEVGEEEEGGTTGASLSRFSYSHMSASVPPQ

[8] = target: Delta-type opioid receptor (Rattus norvegicus, UniProt P33533); test: Binding affinity towards Opioid receptor delta 1 using [3H]- [p-CIPhe4] DPDPE as radioligand
Sequence of Delta-type opioid receptor (Rattus norvegicus, UniProt P33533) (P33533 whole entry): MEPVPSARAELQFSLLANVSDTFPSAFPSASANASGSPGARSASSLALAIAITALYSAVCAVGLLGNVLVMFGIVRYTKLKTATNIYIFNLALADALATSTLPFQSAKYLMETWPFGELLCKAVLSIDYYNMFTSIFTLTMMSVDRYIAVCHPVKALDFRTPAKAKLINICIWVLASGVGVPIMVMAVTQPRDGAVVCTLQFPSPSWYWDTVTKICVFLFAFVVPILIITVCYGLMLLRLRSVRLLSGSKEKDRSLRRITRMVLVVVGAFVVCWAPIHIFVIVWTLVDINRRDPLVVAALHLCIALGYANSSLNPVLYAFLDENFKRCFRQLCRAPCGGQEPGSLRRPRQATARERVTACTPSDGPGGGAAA

[9] = target: T4, Oxytocin receptor (Homo sapiens, UniProt P30559); test: Binding affinity towards oxytocin receptor
T4 sequence (P30559 whole entry): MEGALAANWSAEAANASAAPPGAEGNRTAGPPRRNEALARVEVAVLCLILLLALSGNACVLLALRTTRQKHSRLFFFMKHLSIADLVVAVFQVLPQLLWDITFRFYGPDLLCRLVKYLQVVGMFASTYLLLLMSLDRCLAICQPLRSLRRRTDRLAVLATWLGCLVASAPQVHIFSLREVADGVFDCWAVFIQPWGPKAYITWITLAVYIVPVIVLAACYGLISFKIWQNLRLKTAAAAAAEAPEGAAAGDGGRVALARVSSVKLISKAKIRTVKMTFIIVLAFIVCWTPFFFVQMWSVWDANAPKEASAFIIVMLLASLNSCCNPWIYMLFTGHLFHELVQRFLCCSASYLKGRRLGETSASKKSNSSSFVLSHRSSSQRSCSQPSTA

[10] = Biological activity using the frog skin (Rana pipiens) assay. The value indicates no prolonged biological activity; type: functional
[11] = tested on: Anolis carolinensis; test: Biological activity using the lizard skin (Anolis carolinensis) assay. The value indicates no prolonged biological activity; type: functional, organism-based

Cc1cc(O)cc(C)c1[C@@H](C)[C@H](N)C(=O)N[C@H]1C(=O)NCC(=O)N[C@@H](Cc2ccccc2)C(=O)N[C@@H](C(=O)O)C(C)(C)SSC1(C)C
IC50 [1]: 4300 nM

CCCC[C@H](NC(C)=O)C(=O)N[C@H]1CCC(=O)NCCCC[C@@H](C(N)=O)NC(=O)[C@H](Cc2c[nH]c3ccccc23)NC(=O)[C@H](CCCN=C(N)N)NC(=O)[C@@H](Cc2ccccc2)NC(=O)[C@H](Cc2c[nH]cn2)NC1=O
EC50 [2]: 0.11 nM
EC50 [3]: 1 nM

CCCC[C@@H](NC(=O)[C@@H](N)Cc1ccc(O)cc1)C(=O)NCC(=O)N[C@@H](Cc1c[nH]c2ccccc12)C(=O)N(C)[C@@H](CCCC)C(=O)N[C@@H](CC(=O)O)C(=O)N[C@@H](Cc1ccccc1)C(N)=O (H-Y[dNle]GW[NMeNle]DF-NH2)
Ki [4]: 1.6 nM
Ki [5]: 25 nM
Ki [6]: 0.6 nM
Ki [7]: 3900 nM

CCCC[C@@H](C(=O)N[C@@H](CC(=O)O)C(=O)N[C@@H](Cc1ccccc1)C(N)=O)N(C)C(=O)[C@@H](Cc1c[nH]c2ccccc12)NC(=O)CNC(=O)[C@@H](Cc1ccccc1)NC(=O)[C@@H](N)Cc1ccc(O)cc1 (H-Y[dF]G[dW][NMeNle]DF-NH2)
Ki [4]: 0.5 nM
Ki [5]: 5.7 nM
Ki [6]: 1.6 nM

CCCC[C@H](NC(C)=O)C(=O)N[C@H]1CCC(=O)NCCCC[C@@H](C(=O)NCC(=O)N2CCC[C@H]2C(=O)N[C@H](C(N)=O)C(C)C)NC(=O)[C@H](Cc2c[nH]c3ccccc23)NC(=O)[C@H](CCCN=C(N)N)NC(=O)[C@@H](Cc2ccccc2)NC(=O)[C@H](Cc2c[nH]cn2)NC1=O
EC50 [2]: 0.17 nM
EC50 [3]: 0.5 nM

Cc1cc(O)cc(C)c1[C@H](C)[C@H](N)C(=O)N[C@H]1C(=O)NCC(=O)N[C@@H](Cc2ccccc2)C(=O)N[C@@H](C(=O)O)C(C)(C)SSC1(C)C
IC50 [8]: 210 nM
IC50 [1]: 720 nM

CC[C@H](C)[C@@H]1NC(=O)[C@@H]([C@H](C)c2c(C)cc(OC)cc2C)NC(=O)[C@H](N)C(C)(C)SSC[C@@H]2NC(=O)[C@H](CC(N)=O)NC(=O)[C@H](CCC(=O)NCCCC[C@@H](C(=O)NCC(N)=O)NC(=O)[C@@H]3CCCN3C2=O)NC1=O
IC50 [9]: 160 nM

CC[C@H](C)[C@@H]1NC(=O)[C@H]([C@@H](C)c2c(C)cc(OC)cc2C)NC(=O)[C@H](N)C(C)(C)SSC[C@@H]2NC(=O)[C@H](CC(N)=O)NC(=O)[C@H](CCC(=O)NCCCC[C@@H](C(=O)NCC(N)=O)NC(=O)[C@@H]3CCCN3C2=O)NC1=O
IC50 [9]: 8 nM

CC[C@H](C)[C@@H]1NC(=O)[C@@H]([C@@H](C)c2c(C)cc(OC)cc2C)NC(=O)[C@H](N)C(C)(C)SSC[C@@H]2NC(=O)[C@@H](CC(N)=O)NC(=O)[C@@H](CCC(=O)NCCCC[C@H](C(=O)NCC(N)=O)NC(=O)[C@H]3CCCN3C2=O)NC1=O
IC50 [9]: 36000 nM

CCCC[C@@H](C(=O)N[C@@H](CC(=O)O)C(=O)N[C@@H](Cc1ccccc1)C(N)=O)N(C)C(=O)[C@@H](Cc1c[nH]c2ccccc12)NC(=O)CNC(=O)[C@@H](C)NC(=O)[C@@H](N)Cc1ccc(O)cc1 (H-Y[dA]G[dW][NMeNle]DF-NH2)
Ki [4]: 1.9 nM
Ki [5]: 20 nM
Ki [6]: 1.3 nM
Ki [7]: 32 nM

CCCC[C@H](NC(C)=O)C(=O)N[C@H]1CC(=O)NCCCC[C@@H](C(N)=O)NC(=O)[C@@H]([C@H](C)c2c[nH]c3ccccc23)NC(=O)[C@H](CCCN=C(N)N)NC(=O)[C@@H](Cc2ccccc2)NC(=O)[C@H](Cc2c[nH]cn2)NC1=O
EC50 [2]: 1 nM
EC50 [3]: 0.33 nM

CCCC[C@H](NC(C)=O)C(=O)N[C@H]1CC(=O)NCCCC[C@@H](C(N)=O)NC(=O)[C@H]([C@H](C)c2c[nH]c3ccccc23)NC(=O)[C@H](CCCN=C(N)N)NC(=O)[C@@H](Cc2ccccc2)NC(=O)[C@H](Cc2c[nH]cn2)NC1=O
EC50 [10]: 29 nM
EC50 [11]: 6.7 nM
